Assay results published in PMC5679075 (Nature, 2017).

Molecular target: T1, LepI (Aspergillus flavus, UniProt B8NJH3)
T1 sequence (B8NJH3 1-387): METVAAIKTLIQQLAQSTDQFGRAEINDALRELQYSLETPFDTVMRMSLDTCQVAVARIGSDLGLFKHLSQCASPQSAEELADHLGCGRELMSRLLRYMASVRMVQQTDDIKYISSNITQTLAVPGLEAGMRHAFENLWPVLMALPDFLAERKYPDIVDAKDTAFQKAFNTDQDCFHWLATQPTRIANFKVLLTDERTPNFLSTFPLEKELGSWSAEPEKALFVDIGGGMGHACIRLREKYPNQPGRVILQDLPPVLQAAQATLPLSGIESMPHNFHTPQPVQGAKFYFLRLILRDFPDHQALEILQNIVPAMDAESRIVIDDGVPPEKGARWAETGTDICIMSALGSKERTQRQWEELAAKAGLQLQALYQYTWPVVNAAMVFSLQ
Assay: HPLC time course, inhibition of retro-Claisen rearrangement
Type: biochemical
Settings: read-out: % inhibition at 250 μM

## Nc1ncnc2c1ncn2[C@@H]1O[C@H](CSCC[C@H](N)C(=O)O)[C@@H](O)[C@H]1O [SAH]
  inhibition at 250 µM: > 90%
